How the values were obtained:
[1] = system: 29 nm liposomes; details: with 29 nm liposomes; cited from earlier work
[2] = system: synthetic lipid vesicles; test: Fluorescence enhancement assay of NBD-labeled MARCKS peptides with synthetic vesicles; assay type: binding; details: FIG. 4B
Text: In another exemplary method, lipid vesicles were employed to the curvature-sensing behavior of the MARCKS derived peptides with various sizes and lipid components. The membrane curvature is defined as the reciprocal of the diameter of a particular particle, e.g., smaller-sized vesicles present highly curved membrane bilayers. A series of lipid models were made to represent various lipid components that closely resemble the lipid composition of biological membranes. […] Dynamic light scattering (DLS) and negative-stain transmission electron microscopy (TEM) were performed to confirm the different vesicle sizes following the pressure-controlled extrusion process through different membrane diameter pores. Commercial polystyrene beads were used as the calibration standard for the vesicle size validation experiments. Furthermore, a time-course experiment was carried out to confirm the stability of the vesicles up to 16 hours. Three different membrane diameters were extruded for the following biophysical characterizations: 30 nm, 100 nm, 400 nm, reflecting different membrane curvatures.
Next, a fluorescence enhancement assay was conducted to further quantify the curvature- and PS-sensing behavior of MARCKS-ED. Appropriate controls were performed to confirm that the fluorophore alone had no effect on the observed fluorescence enhancement (data not shown). FIG. 4 represents histogram data of fluorescence enhancement assay with and fluorescence anisotropy titration of the NBD labeled MARCKS derived peptides. Upon binding to lipid vesicles, the fluorescence intensity of NBD-MARCKS-ED increased due to vesicle binding and changes in the hydrophobic environment surrounding the fluorophore, concurring with a slight blue shift of the maximum emission wavelength. The emission spectra of all NBD-labeled peptides were recorded using a Fluorolog-3 fluorometer with λex=480 nm. The peptides and protein were tested at a concentration of 500 nM in PBS (pH 7.40) treated with 500 μM synthetic vesicles of different vesicles sizes. […] The positive control C2AB (200 nM) from the rat Synaptotagmin-1 (Syn-1) protein (G374, residues 96-421) was treated with CaCl2 (2.5 mM) and observed with λex of 275 nm and emission range of 300-450 nm. The untreated peptide and Ca^2+-C2AB samples were corrected by the PBS (pH=7.40) blank solution for the peptides and PBS with Ca^2+ for the Ca^2+-C2AB sample. All samples were prepared and incubated overnight in 4° C.
FIG. 4A illustrates a histogram plot of fluorescence intensity of MARCKS-ED treated with lipid vesicles of various sizes. […] Last, the fluorescence intensity differences were less significant with vesicles containing no PS. […]

[3] = system: lipid vesicles 60% POPC:15% cholesterol:15% POPE:10% POPS; test: Fluorescence anisotropy titration of NBD-labeled MARCKS peptides with lipid vesicles; assay type: binding; details: FIG. 4D
Procedure: In another example, because fluorescence enhancement assays could not distinguish the contributions between different degrees of membrane penetration and binding affinity, fluorescence anisotropy assay was performed to specifically measure the binding affinity of the MARCKS derived peptides. The NBD-labeled peptides (1 μM) were titrated by synthetic liposomes of various sizes (30, 100, and 400 nm). Fluorescence anisotropy was recorded using a Fluorolog-3 fluorometer. The mixture was allowed to equilibrate for 2 minutes prior to the next titration. The excitation wavelength was set to λex=480 nm whereas the emission filter was set to λem=545 nm. The voltage was set to 250 V throughout the experiment. Blank PBS (pH=7.40) was titrated to NBD-labeled peptides as a negative control, where negligible anisotropy change was observed. The following equation was used to determine the dissociation constants as previously reported: Fb=Kp [L]/(1+KP[L]), where Fb expresses the fraction of peptide bound to lipids, Kp expresses the molar partition coefficient and [L] expresses the lipid concentration.
Lipid vesicles were titrated to NBD-labeled MARCKS-ED, MARCKSmut1, or MARCKSmut2 peptides. Since the peptide partitions between the hydrophobic lipid bilayer and the aqueous solvent, the molar partition coefficient is often reported. By definition, the apparent dissociation constant (Kd), described as the lipid concentration where 50% of the peptide is bound, is the reciprocal of the molar partition coefficient (Kp). Fluorescence anisotropy assay results indicated efficient curvature sensing by MARCKS-ED. FIG. 4C represents an exemplary fluorescence anisotropy titration of MARCKS-ED with various lipid vesicles. FIG. 4D provides data of fluoresence anisotropy titration of various MARCKS derived peptides. Lipid vesicles used in the experiments represented by FIGS. 4C-4D contained 60% POPC:15% cholesterol: 15% POPE: 10% POPS. […] As a comparison, C2AB illustrated a 1.9 fold increase in binding to smaller vesicles (105 nm) relative to the larger ones (252 nm). […] In addition, electrostatic interactions of MARCKSmut2 were also compromised. […] Such defects would permit the Phe residue to insert and stabilize the highly curved membranes.

[4] = system: microvesicles in plasma; test: Nanoparticle tracking analysis of microvesicles in plasma from stressed rats treated with MARCKS peptides; assay type: binding, rat; details: Alexa Fluor 546 labeled peptides 55 nM
Procedure: These isolated microvesicles were measured by nanoparticle tracking analysis (NTA) to confirm their average size (ø=56 nm). Tracking analyses were performed using the NanoSight LM10-HS instrument (Amesbury, UK) equipped with a 532 nm laser and observed at scatter and fluorescence modes (filter=550 nm). The instrument was calibrated using commercially available 50 nm polystyrene beads. […] Alexa Fluor 546™-labeled mouse anti-rat CD63 and unconjugated Alexa Fluor 546™ were used as positive and negative controls, respectively. The profiles of MARCKS-ED-Alexa Fluor 546™ and Alexa Fluor 546™ in the absence of microvesicles were also investigated to confirm that these show negligible scatter and fluorescence background signals under identical NTA conditions.
FIG. 5A represents fluorescence enhancement assay with MARCKS-ED incubated with the isolated microvesicles. Peptide MARCKS-ED ([…]) not treated with microvesicles was used as a negative control. Annexin-V (a positive control) and MARCKS-ED were incubated with the isolated rat microvesicles. Fluorescence was normalized to the negative control. […] The diameter size and particle count of the isolated microvesicles detected by MARCKS-ED was further quantified. Nanoparticle tracking analysis (NTA) uses a laser for scatter and fluorescence modes to track small particles by Brownian motion, providing a robust method for detecting nano-sized microvesicles. Under the fluorescence mode with the emission filter set for the Alexa Fluor 546™, the particles that bound to MARCKS-ED, MARCKSmut1, and MARCKSmut2peptides were observed.
FIG. 5B illustrates the results of NTA of microvesicles treated with MARCKS derived peptides. […] The untreated plasma samples were detected using the scatter mode and treated samples were monitored by tracking the fluorescence of Alexa Fluor 546™ conjugated to the MARCKS-ED MARCKSmut1 and MARCKSmut2 peptides. […] Furthermore, blank samples were performed to rule out possible artifacts of background fluorescence from the peptides, the vesicles and the unconjugated dye.

[5] = system: PS-exposing cell membranes; test: Fluorescence staining of PS-exposing membranes in dissected gonads of C. elegans; assay type: in vivo; details: wild type (N2), tat-1(tm3117) and ced-7(n2094) animals
Procedure: Fluorescence staining assays were carried out in an acceptible C. elegans model with PS-exposing cell membranes. […] NBD-MARCKS-ED was used to stain the dissected gonads of wild type (N2) animals, tat-1(tm3117) mutant animals, and engulfment-deficient ced-7 (n2094) mutant animals, respectively. 36 hour old hermaphrodite adult animals were collected and gently dissected by cutting their heads in a depression slide with a gonad dissection buffer (previously presented) to expose the gonads. The exposed gonads were then washed once in the dissection buffer and transferred to a dissection buffer containing 4 μM of Hoechst 33342 and 20 μM of NBD labeled MARCKS-ED peptide, 20 μM NBD-MARCKSmut1 peptide, or 10 nM Alexa Fluor 488-conjugated Annexin-V for 45 minutes. Gonads were washed one more time in the dissection buffer, placed on a 5% agarose pad, and visualized using a Nomarski microscope equipped with an epifluorescence detector.
FIGS. 6A-6C illustrate exemplary staining results using MARCKS derived peptides and Annexin V. PS is typically kept in the inner leaflet of plasma membranes in living cells and is exposed on the cell surface only under certain cellular events, i.e., when cells undergo apoptosis or lose the ability to maintain the PS asymmetry with a tat-1 gene mutation. FIG. 6A represents the staining results with labeled MARCKS-ED in wild type and mutants C. elegans. […] FIG. 6B represents the staining results with labeled MARCKSmut1 in wild type and mutants C. elegans. […] In FIGS. 6A-6B, nuclei were stained with Hoechst 33342. Annexin-V, a known PS-sensor, was also used to stain the gonads of tat-1 and ced-7 mutant C. elegans. […] Hoechst33342 (4 μM), FITC-AnnexinV (10 nM) and Nomarski images are shown. […] Scale bar=10 μm.

[6] = system: isolated microvesicles; test: Fluorescence enhancement with isolated rat microvesicles; assay type: binding
Procedure: In another exemplary method, having established the simultaneous curvature- and PS-sensing by MARCKS-ED in synthetic liposomes, MARCKS-ED was tested on detection of highly curved, PS-enriched particles in a complex biological system. Microvesicles (ø=0.03-1 μm) are highly curved lipid vesicles that shed into body fluids (e.g., blood, urine, ascitic fluid). These vesicles are released by cancerous cells in which lipid asymmetry is de-regulated, contributing to externalization and enrichment of PS on their outer leaflet. The microvesicle detecting ability of MARCKS-ED was investigated using plasma samples from a stressed rat model. […]
Microvesicles in these samples were characterized by TEM imaging, and ELISA of detection of the signature CD63 protein and the membrane transport protein Rab5b exposed on the surface. Particles expressing both proteins were captured by antibodies and quantified in a colorimetric endpoint assay.
These isolated microvesicles were measured by nanoparticle tracking analysis (NTA) to confirm their average size (ø=56 nm). Tracking analyses were performed using the NanoSight LM10-HS instrument (Amesbury, UK) equipped with a 532 nm laser and observed at scatter and fluorescence modes (filter=550 nm). […]
Monitored at λex=295 nm, Annexin-V (0.32 μM) was treated with CaCl2 (3 mM) in TES buffer and with 500 μM lipid vesicles of varying PS content. […]

Row | binding affinity [3] | Substance | fluorescence enhancement [1] | fluorescence enhancement and curvature sensing [2] | binding to microvesicles in whole plasma (NTA fluorescence mode) [4] | staining of PS-exposed membranes [5] | binding to isolated microvesicles (fluorescence enhancement) [6]
1 |  | nuclear pore complex protein-133245-267: ALPS motif-bearing established curvature-sensing protein fragment (LPQGQGMLSGIGRKVSSLFGILS; UniProt Q8WUM0 245-267, looked up, fragment) | ~1.25 RFU |  |  |  | 
2 | greatly reduced binding affinity | KKKKKRASAKKSAKLSGASAKKNKK [MARCKSmut1, MARCKS-ED with the five Phe residues mutated to Ala] |  | significantly reduced fluorescence enhancement | some preferential binding to smaller vesicles but with much weaker fluorescence signal | did not appear to detect PS-exposed membranes in either tat-1 or ced-7 mutant animals | 
3 | compromised | AAAAAAFSFAASFALSGFSFAANAA [MARCKSmut2, MARCKS-ED with positively charged residues (Lys, Arg) mutated to Ala] |  | significantly reduced fluorescence enhancement | only negligible binding |  | 
4 |  | Annexin-V: established PS-sensing protein, positive control [reference compound] |  |  |  | germ cell corpses stained with both Hoechst and FITC-AnnexinV protein | Fluorescence enhancement was observed
5 |  | Golgi-microtubule-associated protein-2101-38: ALPS motif-bearing established curvature-sensing protein fragment (MSSWLGGLGSGLGQSLGQVGGSLASLTGQISNFTKDML; UniProt Q15643 1-38, looked up, fragment) | ~1.25 RFU |  |  |  | 
